In brackets after ≈: the same amount, converted by molar mass.
How the values were obtained:
Format in all cases: functional
[1] = T>MIC in Escherichia coli ATCC 25922 at time with in mutant selection window of 100%
[2] = tested on: Escherichia coli; assay: Bactericidal activity against marbofloxacin-resistant Escherichia coli ATCC 25922 assessed as final bacterial count using inoculum size of 10^7 CFU/mL inside the mutant selection window for 100% of time
[3] = tested on: Escherichia coli; assay: Bactericidal activity against marbofloxacin-resistant Escherichia coli ATCC 25922 assessed as area between the control curve and time kill curve using inoculum size of 10^7 CFU/mL inside the mutant selection window for 100% of time
[4] = tested on: Escherichia coli; assay: Bactericidal activity against marbofloxacin-susceptible Escherichia coli ATCC 25922 assessed as final bacterial count using inoculum size of 10^5 CFU/mL inside the mutant selection window for 0% of time
[5] = T>MIC in Escherichia coli ATCC 25922 at time with in mutant selection window of 0%
[6] = tested on: Escherichia coli; assay: Bactericidal activity against marbofloxacin-susceptible Escherichia coli ATCC 25922 assessed as area between the control curve and time kill curve using inoculum size of 10^7 CFU/mL inside the mutant selection window for 25% of time
[7] = tested on: Escherichia coli; assay: Bactericidal activity against marbofloxacin-susceptible Escherichia coli ATCC 25922 assessed as area between the control curve and time kill curve using inoculum size of 10^9 CFU/mL inside the mutant selection window for 25% of time
[8] = tested on: Escherichia coli; assay: Antibacterial activity against Escherichia coli ATCC 25922 assessed as mutant prevention concentration after 24 hrs by agar dilution method
[9] = tested on: Escherichia coli; assay: Bactericidal activity against marbofloxacin-susceptible Escherichia coli ATCC 25922 assessed as final bacterial count using inoculum size of 10^9CFU/mL inside the mutant selection window for 25% of time
[10] = tested on: Escherichia coli; assay: Bactericidal activity against marbofloxacin-susceptible Escherichia coli ATCC 25922 assessed as final bacterial count using inoculum size of 10^7 CFU/mL inside the mutant selection window for 25% of time
[11] = T>MIC in Escherichia coli ATCC 25922 at time with in mutant selection window of 25%
[12] = tested on: Escherichia coli; assay: Bactericidal activity against marbofloxacin-susceptible Escherichia coli ATCC 25922 assessed as area between the control curve and time kill curve using inoculum size of 10^5 CFU/mL inside the mutant selection window for 100% of time
[13] = tested on: Escherichia coli; assay: Bactericidal activity against marbofloxacin-susceptible Escherichia coli ATCC 25922 assessed as final bacterial count using inoculum size of 10^7 CFU/mL inside the mutant selection window for 0% of time
[14] = tested on: Escherichia coli; assay: Bactericidal activity against marbofloxacin-susceptible Escherichia coli ATCC 25922 assessed as area between the control curve and time kill curve using inoculum size of 10^7 CFU/mL inside the mutant selection window for 0% of time
[15] = tested on: Escherichia coli; assay: Bactericidal activity against marbofloxacin-susceptible Escherichia coli ATCC 25922 assessed as final bacterial count using inoculum size of 10^9CFU/mL inside the mutant selection window for 0% of time
[16] = Effect on Escherichia coli ATCC 25922 assessed as time at which drug concentration above the mutant prevention concentration at time with in mutant selection window of 25%
[17] = tested on: Escherichia coli; assay: Bactericidal activity against marbofloxacin-resistant Escherichia coli ATCC 25922 assessed as area between the control curve and time kill curve using inoculum size of 10^9 CFU/mL inside the mutant selection window for 100% of time
[18] = tested on: Escherichia coli; assay: Bactericidal activity against marbofloxacin-susceptible Escherichia coli ATCC 25922 assessed as final bacterial count using inoculum size of 10^7 CFU/mL inside the mutant selection window for 100% of time
[19] = Effect on Escherichia coli ATCC 25922 assessed as time at which drug concentration above the mutant prevention concentration at time with in mutant selection window of 0%
[20] = tested on: Escherichia coli; assay: Bactericidal activity against marbofloxacin-resistant Escherichia coli ATCC 25922 assessed as final bacterial count using inoculum size of 10^5 CFU/mL inside the mutant selection window for 100% of time
[21] = tested on: Escherichia coli; assay: Bactericidal activity against marbofloxacin-resistant Escherichia coli ATCC 25922 assessed as final bacterial count using inoculum size of 10^9 CFU/mL inside the mutant selection window for 100% of time
[22] = tested on: Escherichia coli; assay: Bactericidal activity against marbofloxacin-susceptible Escherichia coli ATCC 25922 assessed as final bacterial count using inoculum size of 10^5 CFU/mL inside the mutant selection window for 100% of time
[23] = tested on: Escherichia coli; assay: Bactericidal activity against marbofloxacin-susceptible Escherichia coli ATCC 25922 assessed as area between the control curve and time kill curve using inoculum size of 10^9 CFU/mL inside the mutant selection window for 0% of time
[24] = Effect on Escherichia coli ATCC 25922 assessed as time at which drug concentration above the mutant prevention concentration at time with in mutant selection window of 100%
[25] = tested on: Escherichia coli; assay: Bactericidal activity against marbofloxacin-susceptible Escherichia coli ATCC 25922 assessed as area between the control curve and time kill curve using inoculum size of 10^5 CFU/mL inside the mutant selection window for 25% of time
[26] = tested on: Escherichia coli; assay: Bactericidal activity against marbofloxacin-susceptible Escherichia coli ATCC 25922 assessed as final bacterial count using inoculum size of 10^5 CFU/mL inside the mutant selection window for 25% of time
[27] = tested on: Escherichia coli; assay: Bactericidal activity against marbofloxacin-susceptible Escherichia coli ATCC 25922 assessed as area between the control curve and time kill curve using inoculum size of 10^7 CFU/mL inside the mutant selection window for 100% of time
[28] = tested on: Escherichia coli; assay: Bactericidal activity against marbofloxacin-susceptible Escherichia coli ATCC 25922 assessed as area between the control curve and time kill curve using inoculum size of 10^5 CFU/mL inside the mutant selection window for 0% of time
[29] = tested on: Escherichia coli; assay: Antibacterial activity against Escherichia coli ATCC 25922 by microdilution method
[30] = tested on: Escherichia coli; assay: Bactericidal activity against marbofloxacin-resistant Escherichia coli ATCC 25922 assessed as area between the control curve and time kill curve using inoculum size of 10^5 CFU/mL inside the mutant selection window for 100% of time

With `CN1CCN(c2c(F)cc3c(=O)c(C(=O)O)cn4c3c2OCN4C)CC1` [MARBOFLOXACIN] the T>MIC [1] was 100%, the CFU [2] was 6 ×10⁸ /ml and the ABBC [3] was 56 log10CFU/ml/hr. For the same compound, the CFU [4] was 7 ×10³ /ml, the T>MIC [5] was 100% and the ABBC [6] was 56 log10CFU/ml/hr. For the same compound, the ABBC [7] was 53 log10CFU/ml/hr, the Activity [8] was 0.256 µg/mL and the CFU [9] was 3 ×10⁴ /ml. For the same compound, the CFU [10] was 8 ×10⁴ /ml, the T>MIC [11] was 100% and the ABBC [12] was 53 log10CFU/ml/hr. It also gave a CFU [13] of 2 ×10⁴ /ml, an ABBC [14] of 57 log10CFU/ml/hr and a CFU [15] of 1 ×10⁴ /ml. For the same compound, the Activity [16] was 75%, the ABBC [17] was 44 log10CFU/ml/hr and the CFU [18] was 7 ×10⁴ /ml. For the same compound, the Activity [19] was 100%, the CFU [20] was 1 ×10⁸ /ml and the CFU [21] was 5 ×10⁷ /ml. It also gave a CFU [22] of 2 ×10⁶ /ml, an ABBC [23] of 51 log10CFU/ml/hr and an Activity [24] of 0%. The ABBC [25] was 54 log10CFU/ml/hr, the CFU [26] was 6 ×10⁴ /ml and the ABBC [27] was 60 log10CFU/ml/hr. It also gave an ABBC [28] of 54 log10CFU/ml/hr, an MIC [29] of 8 ng/mL (≈ 0.0221 µM) and an ABBC [30] of 51 log10CFU/ml/hr.
